Common to all, as to assay type: functional, cell-based
For experiment [1], the system named is A549. Kind of experiment: Cytotoxicity against Homo sapiens (human) A549 cells after 48 hr by SRB assay. To be noted: for IC50: A549, 48 h.
Experiment [2] deals with Caco-2. The experiment can be described thus: Cytotoxicity against Homo sapiens (human) Caco2 cells after 48 hr by SRB assay. The settings on record: Caco-2, 48 h. For orientation: Sulforhodamine B stains cellular protein and so reports cell mass.
Experiment [3] deals with PC-3. The experiment can be described thus: Cytotoxicity against Homo sapiens (human) PC3 cells after 48 hr by SRB assay. The settings on record: for IC50: PC-3, 48 h.
Experiment [4] relates to THP-1. Kind of experiment: Cytotoxicity against Homo sapiens (human) THP1 cells after 48 hr by SRB assay. The settings on record: for IC50: THP-1, 48 h.

Broadly, the IC50 is the concentration needed to halve the response being measured. Lower therefore signals greater potency in that assay.

Take `Clc1cccc2sc(NCCBr)nc12`: the Activity entry in experiment [1], in experiment [3] and in experiment [4] was “Dose-dependent effect” each time. The IC50 was more than 100 µM in experiment [1], 26.9 µM in experiment [2], 110 µM in experiment [3] and 110 µM in experiment [4].

As to `CC(=O)O[C@H]1C(=O)[C@@]2(C)[C@H]([C@H](OC(=O)c3ccccc3)[C@]3(O)C[C@H](OC(=O)[C@H](O)[C@@H](NC(=O)c4ccccc4)c4ccccc4)C(C)=C1C3(C)C)[C@]1(OC(C)=O)CO[C@@H]1C[C@@H]2O`, the Activity result in experiment [1], in experiment [3] and in experiment [4] was “Dose-dependent effect” in each case.

`Cc1ccc2nc(NCCCBr)sc2c1`: the Activity entry in experiment [1], in experiment [3] and in experiment [4] was “Dose-dependent effect” each time. Further, the IC50 in experiment [1] is more than 100 µM; in experiment [2], 81.6 µM; in experiment [3] it was 53.3 µM; in experiment [4], 30.3 µM.

As for `O=c1[nH]cc(F)c(=O)[nH]1` [FLUOROURACIL], the Activity entry in experiment [1], in experiment [3] and in experiment [4] was “Dose-dependent effect” each time. Also, in experiment [2], it took 21 µM to reach half-maximal inhibition (IC50).

Take `Clc1cc2nc(NCCCBr)sc2cc1Cl`: the Activity entry in experiment [1], in experiment [3] and in experiment [4] was “Dose-dependent effect” each time. Further, the IC50 was more than 100 µM in experiment [1], 63 µM in experiment [2], 28 µM in experiment [3] and 7 µM in experiment [4].

Consider `Cc1ccc2nc(NCCBr)sc2c1`, for which the Activity result in experiment [1], in experiment [3] and in experiment [4] was “Dose-dependent effect” throughout. The 50% inhibitory concentration (IC50) in experiment [1] was more than 100 µM; in experiment [2], 67.7 µM; in experiment [3], 40.9 µM; in experiment [4], 39.9 µM.

Take `Fc1ccc2nc(NCCBr)sc2c1`: the Activity result in experiment [1], in experiment [3] and in experiment [4] was “Dose-dependent effect” in each case. Moreover, the IC50 in experiment [1] is 67.6 µM; in experiment [2], 16.8 µM; in experiment [3] it was 9.9 µM; in experiment [4] it was 1 µM.

As to `COc1ccc2nc(NCCCBr)sc2c1`, the Activity entry in experiment [1], in experiment [3] and in experiment [4] was “Dose-dependent effect” throughout. In addition, the IC50 in experiment [1] stood at 89.9 µM; in experiment [2] it was 9.9 µM; in experiment [3], 0.6 µM; in experiment [4], 3 µM.

With `COc1ccc2nc(NCCBr)sc2c1`, the Activity result in experiment [1], in experiment [3] and in experiment [4] was “Dose-dependent effect” each time. In addition, the IC50 in experiment [1] is more than 100 µM; in experiment [2] it was 47.9 µM; in experiment [3] it was 100 µM; in experiment [4], 110 µM.

`Fc1ccc2nc(NCCCBr)sc2c1`: the Activity entry in experiment [1], in experiment [3] and in experiment [4] was “Dose-dependent effect” in each case. For the same compound, the IC50 is more than 100 µM in experiment [1], 93.7 µM in experiment [2], 2.5 µM in experiment [3] and 0.9 µM in experiment [4].

Consider `Clc1ccc2nc(NCCBr)sc2c1`, for which the Activity result in experiment [1], in experiment [3] and in experiment [4] was “Dose-dependent effect” throughout. Besides, the IC50 was more than 100 µM in experiment [1], more than 100 µM in experiment [2], 99 µM in experiment [3] and 97.8 µM in experiment [4].

`Clc1cccc2sc(NCCCBr)nc12`: the Activity result in experiment [1], in experiment [3] and in experiment [4] was “Dose-dependent effect” in each case. Also, the IC50 in experiment [1] is more than 100 µM; in experiment [2], more than 100 µM; in experiment [3] it was 3.1 µM; in experiment [4] it was 1.72 µM.

Regarding `CO[C@@]12[C@H](COC(N)=O)C3=C(C(=O)C(C)=C(N)C3=O)N1C[C@@H]1N[C@@H]12` [MITOMYCIN], the Activity result in experiment [1], in experiment [3] and in experiment [4] was “Dose-dependent effect” each time. Moreover, the half-maximal inhibitory concentration (IC50) in experiment [1] was determined as 0.4 µM; in experiment [4] it was 1.5 µM.

Turning to `Clc1cc2nc(NCCBr)sc2cc1Cl`, the Activity entry in experiment [1], in experiment [3] and in experiment [4] was “Dose-dependent effect” each time. Also, the IC50 came to 85.5 µM in experiment [1], 8.4 µM in experiment [2], 24 µM in experiment [3] and 8.46 µM in experiment [4].

Take `Clc1ccc2nc(NCCCBr)sc2c1`: the Activity result in experiment [1], in experiment [3] and in experiment [4] was “Dose-dependent effect” throughout. Moreover, the IC50 in experiment [1] was more than 100 µM; in experiment [2] it was 33 µM; in experiment [3], 62.8 µM; in experiment [4] it was 60 µM.

The values above are taken from ChEMBL document CHEMBL3045327, “Synthesis, cytotoxic evaluation, and in silico studies of substituted N-alkylbromo-benzothiazoles” (Med Chem Res, 2013).
